Here are results for ten compounds from ChEMBL document CHEMBL1201862, “PubChem BioAssay data set” (2004).

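The compound was tested at five concentrations on cells cultured in 96-well plates, with a 48-hour exposure period. GI50 = concentration required for 50% inhibition of growth.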 Calls of active or inactive are those of the source. Cut-off read from the data, not from the text of the source: active = GI50 up to about 1.1 µM and inactive = higher. Bounds are passed on as bounds.

Common to all, as to test: growth of human tumour cells (NCI), 48 h
Assay [1] relates to 786-0.
The subject of assay [2] is A498.
In assay [3] the test system is ACHN.
Assay [4] has as its system EKVX.
The subject of assay [5] is HCT-116.
In assay [6] the test system is HT-29.
Assay [7] deals with IGROV-1.
For assay [8], the system named is KM12.
Assay [9] deals with MDA-MB-231.
For assay [10], the system named is NCI-H460.
The subject of assay [11] is NCI/ADR-RES.
Assay [12] concerns OVCAR-3.
Assay [13] relates to OVCAR-4.
Assay [14] has as its system SK-MEL-28.
The test system of assay [15] is SN12C.
Assay [16] relates to SNB-19.
The subject of assay [17] is SW-620.
Assay [18] has as its system T47D.
Assay [19] has as its system U-251.

For the compound `COC(=O)c1c[nH]c2c1-c1cc(C(=O)OCc3ccccc3)n(S(=O)(=O)c3ccc(C)cc3)c1C(=O)C2=O`, the GI50 was 0.22 µM (active) in assay [1]; 1.85 µM (inactive) in assay [2]; 0.28 µM (active) in assay [3]; 0.173 µM (active) in [4]; 0.228 µM (active) in [5]; 0.473 µM (active) in assay [6]. The GI50 in [7] was 0.372 µM (active); in assay [8], 0.25 µM (active); in [9], 0.0481 µM (active); in assay [10], 1.24 µM (inactive); in assay [11], 0.45 µM (active); in [12] it was 0.0316 µM (active). For the same compound, the GI50 in assay [13] is 0.299 µM (active); in [14] it was 0.12 µM (active); in assay [15] it was 0.165 µM (active); in [16], 0.193 µM (active); in assay [17] it was 0.214 µM (active); in assay [18], 0.871 µM (active). In addition, the GI50 in assay [19] is 0.317 µM (active).
On to `O=S(=O)(c1ccc(Br)cc1)n1c2ccc(Br)cc2c2nc3ccccc3nc21`, for which the GI50 in assay [1] was 31.6 µM (inactive); in assay [2], > 100 µM (inactive); in assay [3], 39.6 µM (inactive); in assay [4] it was > 100 µM (inactive); in assay [5], > 100 µM (inactive); in assay [6], > 100 µM (inactive). Moreover, the GI50 was 78.7 µM (inactive) in [7]; > 100 µM (inactive) in assay [8]; 50.5 µM (inactive) in assay [9]; > 100 µM (inactive) in assay [10]; > 100 µM (inactive) in assay [11]; > 100 µM (inactive) in assay [12]. Also, the GI50 in assay [13] was 67.9 µM (inactive); in assay [14], > 100 µM (inactive); in assay [15], > 100 µM (inactive); in assay [16] it was 49.3 µM (inactive); in assay [17] it was > 100 µM (inactive); in [18], 61.8 µM (inactive). The GI50 in assay [19] is 23.2 µM (inactive).
For the compound `CC1CC[C@@]2(OC1)OC1C[C@H]3[C@@H]4CC[C@H]5CC(OC6OC(CO)C(OC7OC(CO)C(O)C(O)C7OC7OC(CO)C(O)C(O)C7O)C(O)C6O)CCC5(C)[C@H]4CCC3(C)C1[C@@H]2C` (stereo not given in full), the GI50 in [1] was 1.56 µM (inactive); in assay [2], 1.52 µM (inactive); in [3], 1.54 µM (inactive); in assay [4] it was 0.977 µM (active); in [5], 1.94 µM (inactive); in assay [6], 0.964 µM (active). Further, the GI50 in assay [7] is 1.04 µM (active); in [8], 3.33 µM (inactive); in [9], 0.929 µM (active); in assay [10], 3.08 µM (inactive); in assay [11] it was 6.38 µM (inactive); in assay [12] it was 1.8 µM (inactive). The GI50 was 1.14 µM (inactive) in assay [13]; 2.12 µM (inactive) in [14]; 2.01 µM (inactive) in assay [15]; 3.37 µM (inactive) in assay [16]; 0.933 µM (active) in assay [17]; 2.16 µM (inactive) in assay [18]. Moreover, in assay [19], the GI50 was 1.1 µM (active).
As for `NCCc1nc(-c2nc(C(=O)O)cs2)cs1`, the GI50 in assay [1], in assay [2], in assay [3], in assay [4], in assay [5] and in assay [6] was > 100 µM (inactive) in each case. Besides, the GI50 in assay [7], in assay [8], in assay [9], in assay [10], in assay [11] and in assay [12] was > 100 µM (inactive) throughout. The GI50 in assay [13], in assay [14], in assay [15], in assay [16], in [17] and in assay [18] was > 100 µM (inactive) in each case. In assay [19], the GI50 was > 100 µM (inactive).
For `O=Cc1ccc(-c2ccc(-c3ccc(CO)s3)o2)s1`, the GI50 in assay [1] was 2.47 µM (inactive); in assay [2], 0.104 µM (active); in [3], 28.7 µM (inactive); in assay [4], 23.5 µM (inactive); in assay [5], 0.841 µM (active); in assay [6], 7.83 µM (inactive). In addition, the GI50 in [7] was 0.547 µM (active); in [8] it was 42.6 µM (inactive); in [9], 22 µM (inactive); in assay [10] it was 0.101 µM (active); in assay [11], 10.6 µM (inactive); in [12], 0.372 µM (active). Moreover, the GI50 is 0.318 µM (active) in [13]; > 35.9 µM (inactive) in assay [14]; 17.7 µM (inactive) in assay [15]; 32 µM (inactive) in [16]; 2.22 µM (inactive) in [17]; 2.21 µM (inactive) in [18]. The GI50 in assay [19] is 1.91 µM (inactive).
`COc1ccn(CC(=O)c2cc3ccccc3[nH]2)c(=O)n1`: the GI50 in assay [1], in assay [2], in assay [3], in assay [4], in [5] and in assay [6] was > 100 µM (inactive) throughout. For the same compound, the GI50 in assay [7], in [8], in [9], in [10], in assay [11] and in assay [12] was > 100 µM (inactive) each time. The GI50 in assay [13], in assay [14], in assay [15], in [16], in assay [17] and in assay [18] was > 100 µM (inactive) throughout. Further, the GI50 in assay [19] was > 100 µM (inactive).
Turning to `O=C(O)c1ccc(S(=O)(=O)c2ccccc2[N+](=O)[O-])cc1`, the GI50 in [1], in assay [2], in assay [3], in assay [4], in assay [5] and in assay [6] was > 10 µM (inactive) in each case. The GI50 in assay [7], in assay [8], in [9], in assay [10], in assay [11] and in [12] was > 10 µM (inactive) throughout. In addition, the GI50 in assay [13], in assay [14], in assay [15], in [16], in [17] and in [18] was > 10 µM (inactive) throughout. The GI50 in assay [19] was > 10 µM (inactive).
Take `O=C1c2sc(-c3ccc(Cl)cc3)cc2-n2cccc21`: the GI50 in [1], in assay [2], in [3], in assay [4], in assay [5] and in assay [6] was > 100 µM (inactive) throughout. The GI50 in [7], in [8], in assay [9], in [10], in assay [11] and in [12] was > 100 µM (inactive) each time. Besides, the GI50 in [13], in assay [14], in assay [15], in assay [16], in [17] and in [18] was > 100 µM (inactive) throughout. Moreover, the GI50 in [19] is > 100 µM (inactive).
Turning to `C#CCSC(C=C=C)P(=O)(OC(C)C)OC(C)C` (stereo not given), the GI50 in assay [1] is 46.2 µM (inactive); in assay [2], 36.8 µM (inactive); in assay [3], 42.8 µM (inactive); in assay [4], > 100 µM (inactive); in assay [5], 27 µM (inactive); in assay [6], 33 µM (inactive). The GI50 was 45.7 µM (inactive) in [7]; > 100 µM (inactive) in assay [8]; > 100 µM (inactive) in assay [9]; > 100 µM (inactive) in assay [10]; > 100 µM (inactive) in assay [11]; > 100 µM (inactive) in assay [12]. Further, the GI50 in assay [13] is > 100 µM (inactive); in assay [14], > 100 µM (inactive); in assay [15] it was 32.4 µM (inactive); in [16] it was > 100 µM (inactive); in assay [17], 37.4 µM (inactive); in assay [18], > 100 µM (inactive). The GI50 in [19] is > 100 µM (inactive).
Turning to `Cc1cc(O)nc2c3c(ccc12)OC(C)(C)C=C3`, the GI50 in assay [1] was 6.7 µM (inactive); in assay [2], 10.2 µM (inactive); in [3] it was > 31.6 µM (inactive); in [4], 14.9 µM (inactive); in [5] it was 4.45 µM (inactive); in assay [6], 5.66 µM (inactive). The GI50 is 6.44 µM (inactive) in assay [7]; 4.28 µM (inactive) in assay [8]; 5.78 µM (inactive) in assay [9]; 3.95 µM (inactive) in assay [10]; 3.99 µM (inactive) in assay [11]; 4.28 µM (inactive) in [12]. Moreover, the GI50 in assay [13] is 18.6 µM (inactive); in [14] it was > 23.2 µM (inactive); in assay [15] it was 5.98 µM (inactive); in [16], 4.55 µM (inactive); in assay [17] it was 3.61 µM (inactive); in [18] it was > 23.3 µM (inactive). In addition, the GI50 in assay [19] is 3.11 µM (inactive).
